From patent publication US20260226065A1, “SUBSTITUTED BENZENE COMPOUND” (DAIICHI SANKYO COMPANY, LIMITED, priority 2023, published 2026)
pIC50: −log10 of the molar value.

Target: T1, NLRP3 inflammasome (Homo sapiens, UniProt Q96P20)
T1 construct: endogenous in cells; host or cells: THP-1 (human monocyte-derived), PMA-differentiated, Nigericin-stimulated
Test: In vitro IL-1β production test (PMA-differentiated THP-1 cells, Nigericin stimulation, AlphaLISA)
Format: cell-based
Details: inhibition of IL-1β production; THP-1 cells differentiated with 200 nM PMA; 0.015 mM Nigericin; 2 hours
Procedure: Human monocyte-derived THP-1 cells were cultured for one day in 10% bovine serum-containing RPMI-1640 medium (Thermo #A10491-01) supplemented with 200 nM phorbol 12-myristate 13-acetate (PMA, Sigma #P8139) to induce differentiation.
NLRP3 inflammasome was induced by replacing the culture medium with bovine serum-free RPMI-1640 medium supplemented with 0.015 mM Nigericin (Sigma #SML1779) and the test compound of known concentrations.
After 2 hours, the culture medium supernatant was collected and the IL-1β protein concentration was measured using the AlphaLISA (registered trademark) assay (PerkinElmer #AL220C).
The IL-1β concentration without the addition of the test compound and with Nigericin stimulation was set as 0% inhibitory activity, and the IL-1β concentration without Nigericin stimulation was set as 100% inhibitory activity, and the inhibition rate (% inhibition) of the test compound at each added concentration was calculated.
The % inhibition value was subjected to sigmoid fitting using a logistic regression model to calculate the 50% inhibitory concentration (IC50 value).

T1 sequence (Q96P20 whole entry): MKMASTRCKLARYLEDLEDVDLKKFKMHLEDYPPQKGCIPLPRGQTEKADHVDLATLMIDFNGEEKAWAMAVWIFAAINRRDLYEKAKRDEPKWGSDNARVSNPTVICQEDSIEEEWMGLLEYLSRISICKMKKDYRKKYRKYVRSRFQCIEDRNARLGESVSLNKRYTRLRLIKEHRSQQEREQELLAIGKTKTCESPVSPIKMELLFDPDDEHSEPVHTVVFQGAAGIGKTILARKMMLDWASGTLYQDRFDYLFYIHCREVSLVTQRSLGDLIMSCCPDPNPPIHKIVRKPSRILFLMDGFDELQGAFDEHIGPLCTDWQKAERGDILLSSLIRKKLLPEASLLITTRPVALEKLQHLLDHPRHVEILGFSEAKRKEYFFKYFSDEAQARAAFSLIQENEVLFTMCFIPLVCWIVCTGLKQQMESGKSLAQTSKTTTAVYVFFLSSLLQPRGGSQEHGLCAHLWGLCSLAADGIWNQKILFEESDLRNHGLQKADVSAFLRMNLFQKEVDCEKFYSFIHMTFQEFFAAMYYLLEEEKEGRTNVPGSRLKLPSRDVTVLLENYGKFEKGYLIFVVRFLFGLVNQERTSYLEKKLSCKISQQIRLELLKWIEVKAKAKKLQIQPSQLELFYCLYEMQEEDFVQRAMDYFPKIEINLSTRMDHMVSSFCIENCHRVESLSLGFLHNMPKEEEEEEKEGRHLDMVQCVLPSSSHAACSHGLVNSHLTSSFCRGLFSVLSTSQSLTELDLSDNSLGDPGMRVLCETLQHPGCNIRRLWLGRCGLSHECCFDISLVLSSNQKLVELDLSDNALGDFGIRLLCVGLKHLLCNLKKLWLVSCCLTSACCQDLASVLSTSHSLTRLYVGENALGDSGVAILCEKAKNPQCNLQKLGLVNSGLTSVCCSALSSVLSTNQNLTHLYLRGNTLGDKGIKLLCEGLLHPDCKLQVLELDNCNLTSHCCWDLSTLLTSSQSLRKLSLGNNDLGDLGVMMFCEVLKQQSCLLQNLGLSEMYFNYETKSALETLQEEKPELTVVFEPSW

Q: `Cc1cc(C(F)(F)F)cc(O)c1-c1cc2ccn(-c3ncc(F)cn3)c2nn1` [Example 84, 2-[7-(5-fluoropyrimidin-2-yl)-7H-pyrrolo[2,3-c]pyridazin-3-yl]-3-methyl-5-(trifluoromethyl)phenol] was tested. Which pIC50 did it give?
A: 7.89

Q: How did the pIC50 turn out when `Cc1cc(C(F)(F)F)cc(O)c1-c1cc2ccn([C@H]3C[C@@](C)(CO)C3)c2nn1` [Example 7, 2-{7-[(1s,3s)-3-(hydroxymethyl)-3-methylcyclobutyl]-7H-pyrrolo[2,3-c]pyridazin-3-yl}-3-methyl-5-(trifluoromethyl)phenol] was run?
A: 7.17

Q: `Cc1cc(C(F)(F)F)cc(O)c1-c1cc2ccn(C34CCCC(O)(C3)C4)c2nn1` [Example 88, 5-{3-[2-hydroxy-6-methyl-4-(trifluoromethyl)phenyl]-7H-pyrrolo[2,3-c]pyridazin-7-yl}bicyclo[3.1.1]heptan-1-ol] was tested. Which pIC50 did it give?
A: 7.37

Q: `Cc1cc(F)cc(O)c1-c1cc2c(C)cn([C@H]3C[C@@](C)(O)C3)c2nn1` [Example 91, 5-fluoro-2-{7-[(1s,3s)-3-hydroxy-3-methylcyclobutyl]-5-methyl-7H-pyrrolo[2,3-c]pyridazin-3-yl}-3-methylphenol] was tested. Which pIC50 did it give?
A: 6.90

Q: With `Cc1cc(C(F)(F)F)cc(O)c1-c1cc2c(nn1)N([C@H]1CN(C)CC[C@H]1O)CC2` [Example 49, (3S,4R)-3-{3-[2-hydroxy-6-methyl-4-(trifluoromethyl)phenyl]-5,6-dihydro-7H-pyrrolo[2,3-c]pyridazin-7-yl}-1-methylpiperidin-4-ol] as the compound, how does the pIC50 read?
A: 7.11

Q: With `Cc1cc(C(F)(F)F)cc(O)c1-c1cc2c(C)cn(C34CCCC(O)(C3)C4)c2nn1` [Example 8, 5-{3-[2-hydroxy-6-methyl-4-(trifluoromethyl)phenyl]-5-methyl-7H-pyrrolo[2,3-c]pyridazin-7-yl}bicyclo[3.1.1]heptan-1-ol] as the compound, how does the pIC50 read?
A: 7.81

Q: With `Cc1c(-c2ccc(C(F)(F)F)cc2O)nnc2c1CCN2[C@H]1C[C@@](C)(O)C1` [Example 39, 2-{7-[(1s,3s)-3-hydroxy-3-methylcyclobutyl]-4-methyl-6,7-dihydro-5H-pyrrolo[2,3-c]pyridazin-3-yl}-5-(trifluoromethyl)phenol] as the compound, how does the pIC50 read?
A: 6.40

Q: With `Cc1cc(OC(F)F)cc(O)c1-c1cc2c(OC(F)F)cn([C@H]3C[C@@](C)(O)C3)c2nn1` [Example 78, 5-(difluoromethoxy)-2-[5-(difluoromethoxy)-7-[(1s,3s)-3-hydroxy-3-methylcyclobutyl]-7H-pyrrolo[2,3-c]pyridazin-3-yl]-3-methylphenol] as the compound, how does the pIC50 read?
A: 7.46

Q: How did the pIC50 turn out when `COc1cn([C@H]2C[C@@](C)(O)C2)c2nnc(-c3c(C)cc(OC(F)F)cc3O)cc12` [Example 72, 5-(difluoromethoxy)-2-{7-[(1s,3s)-3-hydroxy-3-methylcyclobutyl]-5-methoxy-7H-pyrrolo[2,3-c]pyridazin-3-yl}-3-methylphenol] was run?
A: 7.27

Q: How did the pIC50 turn out when `Cc1cc(C(F)(F)F)cc(O)c1-c1cc2c(nn1)N([C@@H]1CCCN(C)C1)CC2` [Example 1, 3-methyl-2-{7-[(3R)-1-methylpiperidin-3-yl]-6,7-dihydro-5H-pyrrolo[2,3-c]pyridazin-3-yl}-5-(trifluoromethyl)phenol] was run?
A: 8.28

Q: `Cc1cc(C(F)(F)F)cc(O)c1-c1cc2ncn([C@@H]3CCCN(C)C3)c2nn1` [Example 32, 3-methyl-2-{7-[(3R)-1-methylpiperidin-3-yl]-7H-imidazo[4,5-c]pyridazin-3-yl}-5-(trifluoromethyl)phenol] was tested. Which pIC50 did it give?
A: 7.51

Q: With `CCN1CCC[C@@H](N2CCc3cc(-c4c(C)cc(OC(F)F)cc4O)nnc32)C1` [Example 22, 5-(difluoromethoxy)-2-{7-[(3R)-1-ethylpiperidin-3-yl]-6,7-dihydro-5H-pyrrolo[2,3-c]pyridazin-3-yl}-3-methylphenol] as the compound, how does the pIC50 read?
A: 7.98

Q: `Cc1cc(OC(F)F)cc(O)c1-c1cc2c(C)cn([C@H]3C[C@@](C)(O)C3)c2nn1` [Example 13, 5-(difluoromethoxy)-2-{7-[(1s,3s)-3-hydroxy-3-methylcyclobutyl]-5-methyl-7H-pyrrolo[2,3-c]pyridazin-3-yl}-3-methylphenol] was tested. Which pIC50 did it give?
A: 7.42

Q: `Cc1cc(C(F)(F)F)cc(O)c1-c1cc2c(nn1)c(C1CCCN(C)C1)cn2C` (racemic) [Example 94, 3-methyl-2-[5-methyl-7-(1-methylpiperidin-3-yl)-5H-pyrrolo[3,2-c]pyridazin-3-yl]-5-(trifluoromethyl)phenol] was tested. Which pIC50 did it give?
A: 7.10

Q: How did the pIC50 turn out when `Cc1cc(C(F)(F)F)cc(O)c1-c1cc2ccn(C[C@H](C)O)c2nn1` [Example 89, 2-{7-[(28)-2-hydroxypropyl]-7H-pyrrolo[2,3-c]pyridazin-3-yl}-3-methyl-5-(trifluoromethyl)phenol] was run?
A: 6.86

Q: With `Cc1cc(Cl)cc(O)c1-c1cc2c(C)cn([C@H]3C[C@@](C)(O)C3)c2nn1` [Example 9, 5-chloro-2-{7-[(1s,3s)-3-hydroxy-3-methylcyclobutyl]-5-methyl-7H-pyrrolo[2,3-c]pyridazin-3-yl}-3-methylphenol] as the compound, how does the pIC50 read?
A: 7.88

Q: How did the pIC50 turn out when `Cc1cc(OC(F)F)cc(O)c1-c1cc2c(C#N)cn([C@@H]3CCCN(C(C)C)C3)c2nn1` [Example 68, 3-[4-(difluoromethoxy)-2-hydroxy-6-methylphenyl]-7-[(3R)-1-(propan-2-yl)piperidin-3-yl]-7H-pyrrolo[2,3-c]pyridazine-5-carbonitrile] was run?
A: 8.22

Q: With `Cc1cc(C(F)(F)F)cc(O)c1-c1cc2c3c(n([C@H]4C[C@@](C)(O)C4)c2nn1)CCO3` [Example 83, 2-{8-[(1s,3s)-3-hydroxy-3-methylcyclobutyl]-7,8-dihydro-6H-furo[2′,3′:4,5]pyrrolo[2,3-c]pyridazin-3-yl}-3-methyl-5-(trifluoromethyl)phenol] as the compound, how does the pIC50 read?
A: 8.04

Q: `Cc1cc(C(F)(F)F)c(F)c(O)c1-c1cc2c(C)cn([C@H]3C[C@@](C)(O)C3)c2nn1` [Example 48, 2-fluoro-6-{7-[(1s,3s)-3-hydroxy-3-methylcyclobutyl]-5-methyl-7H-pyrrolo[2,3-c]pyridazin-3-yl}-5-methyl-3-(trifluoromethyl)phenol] was tested. Which pIC50 did it give?
A: 7.00

Q: With `CCN1CCC[C@@H](N2CCc3cc(-c4c(C)cc(Cl)cc4O)nnc32)C1` [Example 26, 5-chloro-2-{7-[(3R)-1-ethylpiperidin-3-yl]-6,7-dihydro-5H-pyrrolo[2,3-c]pyridazin-3-yl}-3-methylphenol] as the compound, how does the pIC50 read?
A: 8.21

Q: `Cc1cc(C(F)(F)F)cc(O)c1-c1cc2ccn([C@@H]3CCCN(C)C3)c2nn1` [Example 2, 3-methyl-2-{7-[(3R)-1-methylpiperidin-3-yl]-7H-pyrrolo[2,3-c]pyridazin-3-yl}-5-(trifluoromethyl)phenol] was tested. Which pIC50 did it give?
A: 8.28

Q: How did the pIC50 turn out when `Cc1cc(C(F)(F)F)cc(O)c1-c1cc2cc(C)n([C@H]3C[C@@](C)(O)C3)c2nn1` [Example 87, 2-{7-[(1s,3s)-3-hydroxy-3-methylcyclobutyl]-6-methyl-7H-pyrrolo[2,3-c]pyridazin-3-yl}-3-methyl-5-(trifluoromethyl)phenol] was run?
A: 7.40

Q: How did the pIC50 turn out when `CN1CCC[C@@H](N2CCN3CCCc4c(-c5ccc(C(F)(F)F)cc5O)nnc2c43)C1` [Example 38, 2-{9-[(3R)-1-methylpiperidin-3-yl]-5,6,8,9-tetrahydro-4H, 7H-1,2,6a,9-tetraazaphenalen-3-yl}-5-(trifluoromethyl)phenol] was run?
A: 6.97

Q: `Cc1cc(C(F)(F)F)cc(O)c1-c1cc2c(nn1)N([C@H]1C[C@@](C)(O)C1)C(C)C2` (mixture of isomers) [Example 86, 2-{7-[(1s,3s)-3-hydroxy-3-methylcyclobutyl]-6-methyl-6,7-dihydro-5H-pyrrolo[2,3-c]pyridazin-3-yl}-3-methyl-5-(trifluoromethyl)phenol] was tested. Which pIC50 did it give?
A: 6.85

Q: How did the pIC50 turn out when `CCN1[C@H]2CC[C@H](N3CCc4cc(-c5c(C)cc(C(F)(F)F)cc5O)nnc43)[C@@H]1CC2` (racemic) [Example 17, 2-{7-[(1S*, 2S*, 5R*)-8-ethyl-8-azabicyclo[3.2.1]octan-2-yl]-6,7-dihydro-5H-pyrrolo[2,3-c]pyridazin-3-yl}-3-methyl-5-(trifluoromethyl)phenol] was run?
A: 8.02

Q: With `Cc1cc(C(F)(F)F)cc(O)c1-c1cc2c(C)cn(C34CCC(O)(C3)C4)c2nn1` [Example 70, 4-{3-[2-hydroxy-6-methyl-4-(trifluoromethyl)phenyl]-5-methyl-7H-pyrrolo[2,3-c]pyridazin-7-yl}bicyclo[2.1.1]hexan-1-ol] as the compound, how does the pIC50 read?
A: 7.51

Q: With `CCN1CCC[C@@H](n2cc(C#N)c3cc(-c4c(C)cc(C(F)(F)F)cc4O)nnc32)C1` [Example 64, 7-[(3R)-1-ethylpiperidin-3-yl]-3-[2-hydroxy-6-methyl-4-(trifluoromethyl)phenyl]-7H-pyrrolo[2,3-c]pyridazine-5-carbonitrile] as the compound, how does the pIC50 read?
A: 8.02

Q: With `CCN1CCC[C@@H](n2cc(C#N)c3cc(-c4c(C)cc(OC(F)F)cc4O)nnc32)C1` [Example 67, 3-[4-(difluoromethoxy)-2-hydroxy-6-methylphenyl]-7-[(3R)-1-ethylpiperidin-3-yl]-7H-pyrrolo[2,3-c]pyridazine-5-carbonitrile] as the compound, how does the pIC50 read?
A: 8.31

Q: `Cc1c(-c2ccc3c(c2O)CCC3)nnc2c1ccn2[C@H]1C[C@@](C)(O)C1` [Example 41, 5-{7-[(1s,3s)-3-hydroxy-3-methylcyclobutyl]-4-methyl-7H-pyrrolo[2,3-c]pyridazin-3-yl}-2,3-dihydro-1H-inden-4-ol] was tested. Which pIC50 did it give?
A: 7.11

Q: With `Cc1cc(C(F)(F)F)cc(O)c1-c1cc2c3ccccc3n([C@H]3C[C@@](C)(O)C3)c2nn1` [Example 81, 2-{9-[(1s,3s)-3-hydroxy-3-methylcyclobutyl]-9H-pyridazino[3,4-b]indol-3-yl}-3-methyl-5-(trifluoromethyl)phenol] as the compound, how does the pIC50 read?
A: 7.26
